# Publication PMC12691779, “Creatine and Taurine as Novel Competitive Inhibitors of Acetylcholinesterase: A Biochemical Basis for Nutritional Modulation of Brain Function” (International Journal of Molecular Sciences, 2025)
# Like-named read-outs stand apart in the source and are kept apart here.
# What was measured:
# [1] = target: Human acetylcholinesterase (AChE; EC 3.1.1.7) (Homo sapiens, UniProt P22303); assay: modified Ellman assay with purified AChE, Lineweaver-Burk kinetics; format: biochemical
# [2] = substrate: CC(=O)SCC[N+](C)(C)C; assay: Km from modified Ellman assay, Lineweaver-Burk (enzyme only); format: biochemical, Homo sapiens; conditions: active site (substrate)
# Description: Km from modified Ellman assay, Lineweaver-Burk (enzyme only) on Human acetylcholinesterase (AChE; EC 3.1.1.7) | The reaction system contained acetylthiocholine (ACth) as the substrate
molecule,measurement,setting,value
"CN(CC(=O)O)C(=N)N [CR, Creatine]",Ki,[1]; read-out: Creatine 0.15 mM,199 ± 5.21 µM
"NCCS(=O)(=O)O [TA, Taurine]",Ki,[1]; read-out: Taurine 0.15 mM,274 ± 5.94 µM
Human acetylcholinesterase (AChE; EC 3.1.1.7) (Homo sapiens) (protein) EGREDAELLVTVRGGRLRGIRLKTPGGPVSAFLGIPFAEPPMGPRRFLPPEPKQPWSGVVDATTFQSVCYQYVDTLYPGFEGTEMWNPNRELSEDCLYLNVWTPYPRPTSPTPVLVWIYGGGFYSGASSLDVYDGRFLVQAERTVLVSMNYRVGAFGFLALPGSREAPGNVGLLDQRLALQWVQENVAAFGGDPTSVTLFGESAGAASVGMHLLSPPSRGLFHRAVLQSGAPNGPWATVGMGEARRRATQLAHLVGCPPGGTGGNDTELVACLRTRPAQVLVNHEWHVLPQESVFRFSFVPVVDGDFLSDTPEALINAGDFHGLQVLVGVVKDEGSYFLVYGAPGFSKDNESLISRAEFLAGVRVGVPQVSDLAAEAVVLHYTDWLHPEDPARLREALSDVVGDHNVVCPVAQLAGRLAAQGARVYAYVFEHRASTLSWPLWMGVPHGYEIEFIFGIPLDPSRNYTAEEKIFAQRLMRYWANFARTGDPNEPRDPKAPQWPPYTAGAQQYVSLDLRPLEVRRGLRAQACAFWNRFLPKLLSATDTLDEAERQWKAEFHRWSSYMVHWKNQFDHYSKQDRCSDL,Km,[2],1.73 ± 0.0147 µM
same,Vmax,[2],131 µM/min
